Structures are written as SMILES.

The first assay concerns ring stage parasites. Put plainly: Parasite growth potency assay, 72 hours, LDH readout. The class given is cell-based. The settings on record: 72 h, parasite growth measured by LDH assay after 72 hours at 37° C.; 0.7% rings, 2% haematocrit; read-out: EC50. The method, boiled down:
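Parasite growth was quantified by LDH assay after a −80 °C freeze-thaw. Before that, compound was incubated for 72 h at 37 °C under humidified gas with ring-stage cultures adjusted to 0.7% parasitemia and 2% haematocrit in serum- and albumax-supplemented RPMI-Hepes.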
In the case of `N=C1N[C@@](CC2CC2)(c2ccccc2)CC(=O)N1Cc1cccc(C(=O)N[C@@H]2c3ccccc3C[C@H]2O)c1` [Example 17, [(4R)-4-(cyclopropylmethyl)-1-[[3-[[(1R,2R)-2-hydroxyindan-1-yl]carbamoyl]phenyl]methyl]-6-oxo-4-phenyl-hexahydropyrimidin-2-ylidene]ammonium; 2,2,2-trifluoroacetate], the EC50 was found to be 3.7 nM. As for `CCC[C@H](c1cccc(C(=O)N[C@@H]2c3ccccc3C[C@H]2O)c1)N1C(=N)N[C@](CC2CC2)(c2ccccc2)CC1=O` [Example 69, [(4S)-4-(cyclopropylmethyl)-1-[(1R)-1-[3-[[(1R,2R)-2-hydroxyindan-1-yl]carbamoyl]phenyl]butyl]-6-oxo-4-phenyl-hexahydropyrimidin-2-ylidene]ammonium; 2,2,2-trifluoroacetate], the EC50 stood at 29.3 nM. Same read-out and setting: the value for `CCC[C@H](c1cccc(C(=O)N[C@H]2CCOc3ccccc32)c1)N1C(=N)N[C@@](CC2CC2)(c2ccccc2)CC1=O` [Example 64, [(4R)-1-[(1R)-1-[3-[[(4S)-chroman-4-yl]carbamoyl]phenyl]butyl]-4-(cyclopropylmethyl)-6-oxo-4-phenyl-hexahydropyrimidin-2-ylidene]ammonium; 2,2,2-trifluoroacetate] was 75.4 nM. Same read-out and setting: the same measure for `C#CCC[C@H](c1cccc(C(=O)NC2CC3(CCC3)Oc3ccccc32)c1)N1C(=N)NC(CC)(CC)CC1=O` (stereo in doubt) [Example 211A, [4,4-diethyl-6-oxo-1-[(1R)-1-[3-[[(4S)-spiro[chromane-2,1′-cyclobutane]-4-yl]carbamoyl]phenyl]pent-4-ynyl]hexahydropyrimidin-2-ylidene]ammonium; 2,2,2-trifluoroacetate]: 25 nM. On the same count and under the same terms, the value for `CCC1(CC)CC(=O)N(Cc2cccc(C(=O)N[C@H]3CCc4ccccc43)c2)C(=N)N1` [Example 77, [4,4-diethyl-1-[[3-[[(1S)-indan-1-yl]carbamoyl]phenyl]methyl]-6-oxo-hexahydropyrimidin-2-ylidene]ammonium; 2,2,2-trifluoroacetate] was 14.7 nM. For `CCC1(CC)CC(=O)N([C@@H](c2cccc(C(=O)N[C@H]3CCOc4ccccc43)c2)c2cccc(S(C)(=O)=O)c2)C(=N)N1` [Example 123A, [1-[[3-[[(4S)-chroman-4-yl]carbamoyl]phenyl]-(3-methylsulfonylphenyl)methyl]-4,4-diethyl-6-oxo-hexahydropyrimidin-2-ylidene]ammonium; 2,2,2-trifluoroacetate], the EC50 is 1.9 nM. `CCC1(CC)CC(=O)N([C@H](c2ccccc2)c2cccc(C(=O)N[C@@H]3c4ccccc4C[C@H]3O)c2)C(=N)N1` [Example 16, [4,4-diethyl-1-[[3-[[(1R,2R)-2-hydroxyindan-1-yl]carbamoyl]phenyl]-phenyl-methyl]-6-oxo-hexahydropyrimidin-2-ylidene]ammonium; 2,2,2-trifluoroacetate]: the EC50 amounted to 0.3 nM.

Consider `CCC[C@H](c1cc(C(=O)N[C@H]2CCOc3ccccc32)ccn1)N1C(=N)NC(CC)(CC)CC1=O` [Example 49A, [1-[1-[4-[[(4S)-chroman-4-yl]carbamoyl]pyridin-1-ium-2-yl]butyl]-4,4-diethyl-6-oxo-hexahydropyrimidin-2-ylidene]ammonium; 2,2,2-trifluoroacetate], for which the EC50 worked out at 0.7 nM. Still for that read-out and setting: the value for `CC(C)[C@]1(C)CC(=O)N(Cc2cccc(C(=O)N[C@H]3CCc4ccccc43)c2)C(=N)N1` [Example 75, [(4S)-1-[[3-[[(1S)-indan-1-yl]carbamoyl]phenyl]methyl]-4-isopropyl-4-methyl-6-oxo-hexahydropyrimidin-2-ylidene]ammonium; 2,2,2-trifluoroacetate] was 66.5 nM. The same measure, in the same setting: the value for `CCC[C@H](c1cccc(C(=O)N[C@H]2CCOc3ccccc32)c1)N1C(=N)N[C@](CC)(c2ccccc2)CC1=O` [Example 70, [(4S)-1-[(1R)-1-[3-[[(4S)-chroman-4-yl]carbamoyl]phenyl]butyl]-4-ethyl-6-oxo-4-phenyl-hexahydropyrimidin-2-ylidene]ammonium; 2,2,2-trifluoroacetate] was 76 nM; that for `CCC[C@H](c1cccc(C(=O)N[C@H]2CCOc3ccccc32)c1)N1C(=N)N[C@](CC2CC2)(c2ccccc2)CC1=O` [Example 68, [(4S)-1-[(1R)-1-[3-[[(4S)-chroman-4-yl]carbamoyl]phenyl]butyl]-4-(cyclopropylmethyl)-6-oxo-4-phenyl-hexahydropyrimidin-2-ylidene]ammonium; 2,2,2-trifluoroacetate] was 72.2 nM; that for `CCC[C@H](c1cccc(C(=O)N[C@@H]2c3ccccc3OCC2O)c1)N1C(=N)NC(CC)(CC)CC1=O` (stereo partly drawn) [Example 127D, 3-[(1R)-1-(4,4-diethyl-2-imino-6-oxo-hexahydropyrimidin-1-yl)butyl]-N-(3-hydroxychroman-4-yl)benzamide] was 1.2 nM.

On to `CCC1(CC)CC(=O)N(Cc2cccc(C(=O)N[C@@H]3c4ccccc4OCC3(C)C)c2)C(=N)N1` (stereo in doubt) [Example 216, 3-[(4,4-diethyl-2-imino-6-oxo-hexahydropyrimidin-1-yl)methyl]-N-(3,3-dimethylchroman-4-yl)benzamide], for which the EC50 was 0.5 nM.

As to `CCC1(CC)CC(=O)N([C@H](COC)c2cccc(C(=O)N[C@H]3CCOc4ccccc43)c2)C(=N)N1` [Example 19, [1-[1-[3-[[(4S)-chroman-4-yl]carbamoyl]phenyl]-2-methoxy-ethyl]-4,4-diethyl-6-oxo-hexahydropyrimidin-2-ylidene]ammonium; 2,2,2-trifluoroacetate], the EC50 was found to be 0.6 nM. Still for that read-out and setting: the same measure for `CCC1(CC)CC(=O)N([C@H](CCS(C)(=O)=O)c2cccc(C(=O)N[C@H]3CCOc4ccccc43)c2)C(=N)N1` [Example 161, [1-[1-[3-[[(4S)-chroman-4-yl]carbamoyl]phenyl]-3-methylsulfonyl-propyl]-4,4-diethyl-6-oxo-hexahydropyrimidin-2-ylidene]ammonium; 2,2,2-trifluoroacetate]: 23 nM.

With `CCC1(CC)CC(=O)N([C@H](CCOC)c2cc(F)cc(C(=O)N[C@H]3c4ccccc4OC(C)(C)[C@@H]3O)c2)C(=N)N1` (stereo in doubt) [Example 129B, [4,4-diethyl-1-[1-[3-fluoro-5-[(3-hydroxy-2,2-dimethyl-chroman-4-yl)carbamoyl]phenyl]-3-methoxy-propyl]-6-oxo-hexahydropyrimidin-2-ylidene]ammonium; 2,2,2-trifluoroacetate], the EC50 was 87 nM. The same measure, in the same setting: the value for `CCC1(CC)CC(=O)N(C(COC)c2cccc(C(=O)N[C@@H]3c4ccccc4OC[C@]3(C)O)c2)C(=N)N1` (stereo partly drawn) [Example 229, 3-[1-(4,4-diethyl-2-imino-6-oxo-hexahydropyrimidin-1-yl)-2-methoxy-ethyl]-N-[(3R,4R)-3-hydroxy-3-methyl-chroman-4-yl]benzamide] was 2.2 nM. On the same count and under the same terms, the value for `CCC1(CC)CC(=O)N([C@H](CCOC)c2cc(F)cc(C(=O)NC3CCCOc4ccccc43)c2)C(=N)N1` (stereo in doubt) [Example 220, [4,4-diethyl-1-[1-[3-fluoro-5-(2,3,4,5-tetrahydro-1-benzoxepin-5-ylcarbamoyl)phenyl]-3-methoxy-propyl]-6-oxo-hexahydropyrimidin-2-ylidene]ammonium; 2,2,2-trifluoroacetate] was 2.4 nM; that for `CCC1(CC)CC(=O)N([C@H](c2cccnc2)c2cccc(C(=O)N[C@H]3CC(C)(C)Oc4ccccc43)c2)C(=N)N1` [Example 100A, [1-[[3-[[(4S)-2,2-dimethylchroman-4-yl]carbamoyl]phenyl]-pyridin-1-ium-3-yl-methyl]-4,4-diethyl-6-oxo-hexahydropyrimidin-2-ylidene]ammonium; 2,2,2-trifluoroacetate] was 0.4 nM.

Turning to `CCC1(CC)CC(=O)N([C@H](CCS(C)(=O)=O)c2cccc(C(=O)N[C@@H]3c4ccccc4OC(C)(C)[C@H]3O)c2)C(=N)N1` [Example 155, [4,4-diethyl-1-[1-[3-[[(3S,4R)-3-hydroxy-2,2-dimethyl-chroman-4-yl]carbamoyl]phenyl]-3-methylsulfonyl-propyl]-6-oxo-hexahydropyrimidin-2-ylidene]ammonium; 2,2,2-trifluoroacetate], the EC50 was 17.2 nM. Consider `CC[C@H](c1cccc(C(=O)N[C@@H]2c3ccccc3OC(C)(C)[C@H]2O)c1)N1C(=N)NC(CC)(CC)CC1=O` [Example 207A, [4,4-diethyl-1-[1-[3-[[(3S,4R)-3-hydroxy-2,2-dimethyl-chroman-4-yl]carbamoyl]phenyl]propyl]-6-oxo-hexahydropyrimidin-2-ylidene]ammonium; 2,2,2-trifluoroacetate], for which the EC50 worked out at 0.3 nM.

Staying with this assay, now noted: parasite growth measured by LDH assay after 72 hours at 37° C.; 0.7% rings, 2% haematocrit; read-out: EC50.
Consider `CC[C@]1(C)CC(=O)N([C@H](CCOC)c2cccc(C(=O)NC3c4ccccc4OC(C)(C)C3(C)O)c2)C(=N)N1` (single isomer, unassigned) [Example 234A], for which the EC50 is 0.43 nM. On the same count and under the same terms, the same measure for `CCC1(CC)CC(=O)N(C(COC)c2cccc(C(=O)N[C@@H]3c4ccccc4OC[C@@]3(C)O)c2)C(=N)N1` (stereo partly drawn) [Example 230, 3-[l-(4,4-diethyl-2-imino-6-oxo-hexahydropyrimidin-1-yl)-2-methoxy-ethyl]-N-[(3S,4R)-3-hydroxy-3-methyl-chroman-4-yl]benzamide]: 0.84 nM.

For `CCC1(CC)CC(=O)N(C(c2cncnc2)c2cccc(C(=O)N[C@@H]3c4ccccc4C[C@H]3O)c2)C(=N)N1` (stereo partly drawn) [Example 110A, 3-[(4,4,-diethyl-2-imino-6-oxo-hexahydropyrimidin-1-yl)-pyrimidin-5-yl-methyl]-N-[(1R,2R)-2-hydroxyindan-1-yl]benzamide], the EC50 stood at 4 nM.

As to `CCC1(CC)CC(=O)N([C@@H](c2cccc(C(=O)N[C@@H]3CC(C)(C)Oc4ccccc43)c2)c2cncs2)C(=N)N1` (stereo in doubt) [Example 90B, 3-[(4,4-diethyl-2-imino-6-oxo-hexahydropyrimidin-1-yl)-thiazol-5-yl-methyl]-N-(2,2-dimethylchroman-4-yl)benzamide], the EC50 worked out at 0.5 nM.

Values taken from patent US12629374B2, “Antimalarial agents” (Merck Sharp & Dohme LLC, priority 2020, dated 2026).
